What was measured:
[1] = test system: Spontaneously hypertensive rats (SHR); assay: Acute efficacy in spontaneously hypertensive rats (SHR): telemetry blood pressure lowering after a single oral dose; type: in vivo, rat
Text: Acute Efficacy in Spontaneously Hypertensive Rats (SHR)
Spontaneously hypertensive rats (SHR, male, Charles River) were implanted with DSI TA11PA-C40 telemetry device (Data Sciences, Inc., St. Paul, Minn.) under isoflurane or ketamine/metomidine anesthesia. The telemetry unit catheter was inserted into the descending aorta via the femoral artery and the telemetry device was implanted subcutaneously in the left flank area. Animals were allowed to recover from surgery for 14 days before the start of any studies. Blood pressure, heart rate, and activity signals from conscious, freely moving rats were recorded continuously for 30 seconds every 10 minutes. On the day prior to administration of compound, a single oral dose of vehicle (10% transcutol/20% Cremophor/70% water) was administered to all animals to establish baseline control data. The blood pressure lowering efficacy of compound (PO) or vehicle was evaluated following a single oral gavage. Data were collected as hourly averages, and changes in blood pressure were calculated by subtracting control baseline data on an hourly basis. Animals were maintained on normal diet with a 12 hour light-dark cycle.
Maximum peak decreases of systolic blood pressure (SBP) in SHR at a particular P.O. dose (mpk milligrams per kilogram) for the following representative compounds are provided. Category A=SBP in SHRs<20 mmHg; Category B=SBP in SHRs 20-40 mmHg; Category C=SBP in SHRs>40 mmHg

[2] = biological target: T1, sGC α1/β1 heterodimer (Homo sapiens, UniProt Q02108+Q02153); assay: Cell-based sGC functional assay (CASA assay): cGMP generation in CHO-K1/sGC cells, HTRF detection; conditions: for EC50: inflection point (IP) of cGMP generation in CHO-K1/sGC cells, 4P fit, activity expressed as percentage of Compound A; for % Act.: percent activation relative to standard Compound A in CHO-K1/sGC cells; for Emax: CHO-K1, percent activation relative to standard Compound A in CHO-K1/sGC cells, read-out: % Act.
T1 construct: expressed in transfected cells; host or cells: CHO-K1 (clone #7, CHO-K1/sGC)
T1 sequence (Q02108 1-690): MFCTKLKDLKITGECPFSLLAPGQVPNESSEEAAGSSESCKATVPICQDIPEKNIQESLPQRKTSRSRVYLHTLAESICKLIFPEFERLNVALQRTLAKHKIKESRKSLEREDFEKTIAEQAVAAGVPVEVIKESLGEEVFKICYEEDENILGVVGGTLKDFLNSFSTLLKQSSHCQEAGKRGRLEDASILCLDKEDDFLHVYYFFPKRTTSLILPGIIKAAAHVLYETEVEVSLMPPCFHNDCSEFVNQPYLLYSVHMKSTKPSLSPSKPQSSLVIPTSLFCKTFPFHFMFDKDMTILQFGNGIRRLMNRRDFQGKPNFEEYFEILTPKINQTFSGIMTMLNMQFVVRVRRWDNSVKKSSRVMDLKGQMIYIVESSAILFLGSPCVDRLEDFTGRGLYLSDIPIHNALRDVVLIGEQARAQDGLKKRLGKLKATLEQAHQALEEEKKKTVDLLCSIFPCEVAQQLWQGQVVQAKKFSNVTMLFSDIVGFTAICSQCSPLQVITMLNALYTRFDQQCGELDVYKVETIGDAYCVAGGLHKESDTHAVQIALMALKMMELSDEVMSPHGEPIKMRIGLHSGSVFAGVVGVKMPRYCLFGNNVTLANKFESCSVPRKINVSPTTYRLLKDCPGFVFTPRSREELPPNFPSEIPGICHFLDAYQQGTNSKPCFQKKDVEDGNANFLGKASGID
T1 sequence (Q02153 1-619): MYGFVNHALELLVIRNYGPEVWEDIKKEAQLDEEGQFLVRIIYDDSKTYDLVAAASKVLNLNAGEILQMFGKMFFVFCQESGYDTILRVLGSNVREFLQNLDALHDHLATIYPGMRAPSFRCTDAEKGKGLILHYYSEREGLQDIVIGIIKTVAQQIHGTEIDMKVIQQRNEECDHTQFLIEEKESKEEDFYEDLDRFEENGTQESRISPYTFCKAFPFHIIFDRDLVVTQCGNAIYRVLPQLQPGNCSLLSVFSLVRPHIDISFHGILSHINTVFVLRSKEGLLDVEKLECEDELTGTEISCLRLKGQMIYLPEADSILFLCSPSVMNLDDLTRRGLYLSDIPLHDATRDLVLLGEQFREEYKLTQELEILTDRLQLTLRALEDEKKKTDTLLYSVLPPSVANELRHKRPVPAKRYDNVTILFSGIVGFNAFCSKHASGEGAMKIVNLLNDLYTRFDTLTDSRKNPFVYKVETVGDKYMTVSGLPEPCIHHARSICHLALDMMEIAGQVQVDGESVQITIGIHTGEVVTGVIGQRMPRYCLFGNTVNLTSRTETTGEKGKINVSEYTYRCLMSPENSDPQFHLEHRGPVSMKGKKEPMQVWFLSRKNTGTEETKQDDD
Summary of the method: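 Stable CHO-K1/sGC cells in EBSS buffer with 5 mM MgCl2, 0.05% BSA and 0.5 mM IBMX were incubated with compound (2.5% DMSO final) ±1 μM DETA-NO for 1 hr at 37° C. cGMP was measured by HTRF. Activation is expressed as % of reference HDA Compound A maximum, with IP and max fold induction from a 4P fit.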

`Nc1nc(-c2cn3ccnc3c(Cc3cccc(F)c3)n2)nc2c1C(C(=O)NC1CC1)(C1CC1)C(=O)N2` (single isomer, unassigned) [Example 38B, 4-amino-N,5-dicyclopropyl-2-(8-(3-fluorobenzyl)imidazo[1,2-a]pyrazin-6-yl)-6-oxo-6,7-dihydro-5H-pyrrolo[2,3-d]pyrimidine-5-carboxamide] was tested, and the “Maximum peak decrease of systolic blood pressure (SBP) in SHR, Cat.” value (“Maximum peak decrease” for short) ([1]; P.O. 0.3 mpk) was “B (Category B=SBP in SHRs 20-40 mmHg)”, the EC50 [2] was 7 nM and the “% Act.” value [2] was 103%.

With `Nc1nc(-c2cn3ccnc3c(CCC(F)(F)C(F)(F)F)n2)nc2c1C(C(=O)NC1CC1)(C1CC1)C(=O)N2` (single isomer, unassigned) [Example 61A, 4-amino-N,5-dicyclopropyl-6-oxo-2-(8-(3,3,4,4,4-pentafluorobutyl)imidazo[1,2-a]pyrazin-6-yl)-6,7-dihydro-5H-pyrrolo[2,3-d]pyrimidine-5-carboxamide] the “Maximum peak decrease” value ([1]; P.O. 3.0 mpk) was “B (Category B=SBP in SHRs 20-40 mmHg)”, the Emax [2] was 95% and the EC50 [2] was 424 nM.

In the case of `CC1(c2ccc(F)cc2)C(=O)Nc2nc(-c3cn4ccnc4c(CCC(F)(F)C(F)(F)F)n3)nc(N)c21` (single isomer, unassigned) [Example 68A, 4-Amino-5-(4-fluorophenyl)-5-methyl-2-(8-(3,3,4,4,4-pentafluorobutyl)imidazo[1,2-a]pyrazin-6-yl)-5H-pyrrolo[2,3-d]pyrimidin-6(7H)-one], the “Maximum peak decrease” value ([1]; P.O. 0.3 mpk) is reported as “C (Category C=SBP in SHRs>40 mmHg)”, the EC50 [2] is reported as 37 nM and the “% Act.” value [2] is reported as 112%.

`CC1(c2ccc(F)cc2)C(=O)Nc2nc(-c3cn4ccnc4c(Cc4cccc(F)c4)n3)nc(N)c21` (single isomer, unassigned) [Example 90A, 4-amino-2-(8-(3-fluorobenzyl)imidazo[1,2-a]pyrazin-6-yl)-5-(4-fluorophenyl)-5-methyl-5H-pyrrolo[2,3-d]pyrimidin-6(7H)-one] was tested, and the “Maximum peak decrease” value ([1]; P.O. 0.3 mpk) was “C (Category C=SBP in SHRs>40 mmHg)”, the Emax [2] was 122% and the EC50 [2] was 32 nM.

For `CC1(c2ccc(F)cc2)C(=O)Nc2nc(-c3cn4ccnc4c(CCC(F)(F)C(F)(F)F)n3)nc(N)c21` (single isomer, unassigned) [Example 222B, 4-amino-5-(4-fluorophenyl)-5-methyl-2-(8-(3,3,4,4,4-pentafluorobutyl)imidazo [1,2-a]pyrazin-6-yl)-5H-pyrrolo[2,3-d]pyrimidin-6(7H)-one], the “Maximum peak decrease” value ([1]; P.O. 3.0 mpk) was “B (Category B=SBP in SHRs 20-40 mmHg)”, the Emax [2] was 121% and the EC50 [2] was 578 nM.

With `Nc1nc(-c2cn3ccnc3c(CCC(F)(F)F)n2)nc2c1C(c1ccc(Cl)cn1)(C1CC1)C(=O)N2` (single isomer, unassigned) [Example 331B, 4-amino-5-(5-chloropyridin-2-yl)-5-cyclopropyl-2-(8-(3,3,3-trifluoropropyl)imidazo[1,2-a]pyrazin-6-yl)-5H-pyrrolo[2,3-d]pyrimidin-6(7H)-one] the “Maximum peak decrease” value ([1]; P.O. 3.0 mpk) was “B (Category B=SBP in SHRs 20-40 mmHg)”, the Emax [2] was 157% and the EC50 [2] was 1310 nM.

For `CC1(c2noc(C3CC3)n2)C(=O)Nc2nc(-c3cn4ccnc4c(CCC(F)(F)C(F)(F)F)n3)nc(N)c21` (single isomer, unassigned) [Example 333B, 4-amino-5-(5-cyclopropyl-1,2,4-oxadiazol-3-yl)-5-methyl-2-(8-(3,3,4,4,4-pentafluorobutyl)imidazo[1,2-a]pyrazin-6-yl)-5H-pyrrolo[2,3-d]pyrimidin-6(7H)-one], the “Maximum peak decrease” value ([1]; P.O. 2.0 mpk) was “B (Category B=SBP in SHRs 20-40 mmHg)”, the Emax [2] was 81% and the EC50 [2] was 84 nM.

`Cc1cnc(C2(C3CC3)C(=O)Nc3nc(-c4cn5ccnc5c(CCC(F)(F)C(F)(F)F)n4)nc(N)c32)cn1` (single isomer, unassigned) [Example 342B, 4-amino-5-cyclopropyl-5-(5-methylpyrazin-2-yl)-2-(8-(3,3,4,4,4-pentafluorobutyl)imidazo[1,2-a]pyrazin-6-yl)-5H-pyrrolo[2,3-d]pyrimidin-6(7H)-one] was tested, and the “Maximum peak decrease” value ([1]; P.O. 1.0 mpk) was “A (Category A=SBP in SHRs<20 mmHg)”, the Emax [2] was 177% and the EC50 [2] was 695 nM.

For `Nc1nc(-c2cn3ccnc3c(CCC(F)(F)C(F)(F)F)n2)nc2c1C(c1ccc(F)cc1)(C1CCC1)C(=O)N2` (single isomer, unassigned) [Example 344B, 4-amino-5-cyclobutyl-5-(4-fluorophenyl)-2-(8-(3,3,4,4,4-pentafluorobutyl)imidazo[1,2-a]pyrazin-6-yl)-5H-pyrrolo[2,3-d]pyrimidin-6(7H)-one], the “Maximum peak decrease” value ([1]; P.O. 0.3 mpk) was “A (Category A=SBP in SHRs<20 mmHg)”, the Emax [2] was 163% and the EC50 [2] was 51 nM.

`Nc1nc(-c2cn3ccnc3c(CCC(F)(F)F)n2)nc2c1C(c1ccc(F)cc1)(C1CCC1)C(=O)N2` (single isomer, unassigned) [Example 345B, 4-amino-5-cyclobutyl-5-(4-fluorophenyl)-2-(8-(3,3,3-trifluoropropyl)imidazo[1,2-a]pyrazin-6-yl)-5H-pyrrolo[2,3-d]pyrimidin-6(7H)-one] was tested, and the “Maximum peak decrease” value ([1]; P.O. 3.0 mpk) was “A (Category A=SBP in SHRs<20 mmHg)”, the Emax [2] was 148% and the EC50 [2] was 949 nM.

`Nc1nc(-c2cn3ccnc3c(CCCC(F)(F)F)n2)nc2c1C(c1cc(C(F)(F)F)ccn1)(C1CC1)C(=O)N2` (single isomer, unassigned) [Example 354B, 4-amino-5-cyclopropyl-2-(8-(4,4,4-trifluorobutyl)imidazo[1,2-a]pyrazin-6-yl)-5-(4-(trifluoromethyl)pyridin-2-yl)-5H-pyrrolo[2,3-d]pyrimidin-6(7H)-one] was tested, and the “Maximum peak decrease” value ([1]; P.O. 1.0 mpk) was “A (Category A=SBP in SHRs<20 mmHg)”, the Emax [2] was 137% and the EC50 [2] was 170 nM.

For `CCCCc1nc(-c2nc(N)c3c(n2)NC(=O)C3(c2cccc(C(F)(F)F)n2)C2CC2)cn2ccnc12` (single isomer, unassigned) [Example 355A, 4-amino-2-(8-butylimidazo[1,2-a]pyrazin-6-yl)-5-cyclopropyl-5-(6-(trifluoromethyl)pyridin-2-yl)-5H-pyrrolo[2,3-d]pyrimidin-6(7H)-one], the “Maximum peak decrease” value ([1]; P.O. 1.0 mpk) was “A (Category A=SBP in SHRs<20 mmHg)”, the Emax [2] was 126% and the EC50 [2] was 202 nM.

In the case of `Nc1nc(-c2cn3ccnc3c(CCCC(F)(F)F)n2)nc2c1C(c1ccc(C(F)F)cn1)(C1CC1)C(=O)N2` (single isomer, unassigned) [Example 378B, 4-amino-5-cyclopropyl-5-(5-(difluoromethyl)pyridin-2-yl)-2-(8-(4,4,4-trifluorobutyl)imidazo[1,2-a]pyrazin-6-yl)-5H-pyrrolo[2,3-d]pyrimidin-6(7H)-one], the “Maximum peak decrease” value ([1]; P.O. 1.0 mpk) is reported as “B (Category B=SBP in SHRs 20-40 mmHg)”, the Emax [2] is reported as 92% and the EC50 [2] is reported as 373 nM.

From patent US9796733B2, “Imidazo-pyrazine derivatives useful as soluble guanylate cyclase activators” (Merck Sharp & Dohme Corp., priority 2014, dated 2017)
